The results in this text go back to patent US20240262842A1, “SMALL MOLECULE INHIBITORS OF KRAS G12C MUTANT” (Merck Sharp & Dohme LLC, priority 2021, published 2024).

Read-outs that look alike come from different tables or passages of the source.

The target of experiment [1] is T1, interaction between GMPPNP-bound recombinant K-Ras4B G12C mutant protein and cRAF RAS-binding domain (cRAF-RBD) (Homo sapiens, UniProt P01116, G12C).
T1 construct: His-tag (N)
Kind of experiment: Inhibitory activity on interaction between KRAS G12C and cRAF (Alpha technology). Put shortly: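 Alpha signal measured 1.5 h after adding cRAF-RBD (aa 50-132) and detection reagents to GMPPNP-bound KRAS G12C (aa 1-169) pretreated 1 h at 25° C with compound (pH 7.5 buffer). 0% inhibition = DMSO, 100% = GDP-loaded KRAS; IC50 by curve fit.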

The next experiment deals with MIA PaCa-2 cells. Put plainly: Growth inhibition activity on KRAS-G12C mutant cell line (CellTiter-Glo 3D). Format: cell-based, human. The following applies: Homo sapiens, MIA PaCa-2, 72 h, MIA PaCa-2, 3-day culture with compound. Put shortly:
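IC50 (nM) derived from inhibition of luminescence (CellTiter-Glo 3D) relative to compound-free wells. Cells were seeded in U-bottom plates, grown 1 day, then exposed to compound for 3 days at 37 °C with 0.2% final DMSO.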
On the technique in general: Cellular ATP, detected with luciferase, serves as a proxy for viable cell number.

Where [2] appears, read: GMPPNP-bound KRAS G12C incubated with compound 25° C. 1 hour, Table 2-1, read-out: IC50.
[3] abbreviates: IC50, GMPPNP-bound KRAS G12C incubated with compound 25° C. 1 hour, Table 2-1.

T1 sequence (P01116 with tags, fused parts or gaps isoform P01116-2 G12C): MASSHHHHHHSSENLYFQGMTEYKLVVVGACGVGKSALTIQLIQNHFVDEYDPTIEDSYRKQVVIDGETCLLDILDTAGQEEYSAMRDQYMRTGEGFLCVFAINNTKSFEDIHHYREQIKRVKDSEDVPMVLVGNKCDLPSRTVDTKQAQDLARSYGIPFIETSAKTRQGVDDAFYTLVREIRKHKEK

Usually IC50 stands for the point on the concentration scale where inhibition reaches its midpoint. For `COc1cc2c(nc(C)n2C)c2c1-c1cccn3c(C(=O)c4cc(F)c(NC(=O)/C=C/CN[C@H]5CC[C@H](OC)CC5)c(F)c4)cc(c13)CCN2C` [Example 78, (E)-N-(2,6-difluoro-4-(7-methoxy-9,10,12-tri-methyl-9,12,13,14-tetra-hydroimidazo[4″,5″:5′,6′]-benzo[1′,2′:2,3]azocino-[4,5,6-hi]indolizine-2-carbonyl)phenyl)-4-(((1r,4r)-4-methoxycyclo-hexyl)amino)but-2-en-amide], the IC50 in experiment [1] (setting [2]) was 33.7 nM; in the experiment with MIA PaCa-2 cells (Table 3-1), 6.92 nM.
The like results for `CO[C@H]1CC[C@H](NC/C=C/C(=O)Nc2c(F)cc(C(=O)c3cc4c5c(cccn35)-c3c(C(F)(F)F)cc5c(ncn5C)c3N(C)CC4)cc2F)CC1` [Example 74, (E)-N-(4-(9,12-dimethyl-7-(trifluoromethyl)-9,12,13,14-tetrahydro-imidazo[4″,5″:5′,6′]benzo-[1′,2′:2,3]azocino[4,5,6-hi]indolizine-2-carbonyl)-2,6-difluorophenyl)-4-(((1r,4r)-4-methoxycyclo-hexyl)amino)but-2-en-amide] were, in that order, 33.3 nM and 8.22 nM.
Consider `CO[C@H]1CC[C@H](NC/C=C/C(=O)Nc2c(F)cc(C(=O)c3nn4c5c(cccc35)-c3c(C(F)(F)F)cc5c(nc(C)n5C)c3OCC4)cc2F)CC1` [Example 46, (E)-N-(4-(8,9-dimethyl-6-(trifluoromethyl)-12,13-dihydro-8H-imidazo[4″,5″:3′4′]benzo[1′,2′:7,8][1,4]oxazocino[6,5,4-hi]indazole-2-carbonyl)-2,6-difluorophenyl)-4-(((1r,4r)-4-methoxycyclohexyl)amino)but-2-enamide], for which the IC50 amounted to 140 nM in experiment [1] (GMPPNP-bound KRAS G12C incubated with compound 25° C. 1 hour, Table 2, read-out: IC50) and 57 nM in the experiment on MIA PaCa-2 cells (Table 3).
Consider `CN1CCc2nc(C(=O)c3cc(F)c(NC(=O)/C=C/CN[C@H]4CCOC4)c(F)c3)n3cccc(c23)-c2c(C(F)(F)F)cc3c(ncn3C)c21` (single isomer, unassigned) [Example 167], for which the IC50 in experiment [1] (setting [2]) was found to be 27.9 nM; in the experiment on MIA PaCa-2 cells (Table 3-1), 16.4 nM.
`Cc1cc2c(nc(C)n2C)c2c1-c1cccc3c(C(=O)c4cc(F)c(NC(=O)/C=C/CNCC(=O)N(C)C)c(F)c4)cn(c13)CCN2C` [Example 94, (E)-N-(2,6-difluoro-4-(6,8,9,11-tetramethyl-8,11,12,13-tetrahydro-imidazo[4″,5″:5′,6′]-benzo[1′,2′:5,6][1,4]-diazocino[7,8,1-hi]indole-2-carbonyl)phenyl)-4-((2-(dimethylamino)-2-oxoethyl)amino)but-2-enamide]: the IC50 in experiment [1] (setting [3]) amounted to 71.6 nM; in the experiment on MIA PaCa-2 cells (Table 3-1) it was 73 nM.
For the compound `CC(=O)C(C)(C)NC/C=C/C(=O)Nc1c(F)cc(C(=O)c2cn3c4c(cccc24)-c2c(C)cc4c(nc(C)n4C)c2N(C)CC3)cc1F` [Example 85, (E)-N-(2,6-difluoro-4-(6,8,9,11-tetramethyl-8,11,12,13-tetrahydro-imidazo[4″,5″:5′,6′]benzo-[1′,2′:5,6][1,4]diazocino-[7,8,1-hi]indole-2-carbon-yl)phenyl)-4-(2-methyl-3-oxobutan-2-ylamino)but-2-enamide], the IC50 in experiment [1] (setting [3]) is 61 nM; in the experiment with MIA PaCa-2 cells (Table 3-1), 30.9 nM.
Regarding `CO[C@H]1CC[C@H](NC/C=C/C(=O)Nc2c(F)cc(C(=O)c3c(C)c4c5c(cccn35)-c3c(C(F)(F)F)cc5c(nc(C)n5C)c3OCC4)cc2F)CC1` (single isomer, unassigned) [Example 64, (E)-N-(2,6-difluoro-4-(1,9,10-trimethyl-7-(tri-fluoromethyl)-13,14-dihydro-9H-imidazo-[4″,5″:5′,6′]benzo[1′,2′: 2,3]oxocino[4,5,6-hi]-indolizine-2-carbonyl)-phenyl)-4-(((1r,4r)-4-methoxycyclohexyl)-amino)but-2-enamide], the IC50 in experiment [1] (setting [2]) is 14.2 nM; with MIA PaCa-2 cells (Table 3-1), 11 nM.
In the same order, the values of `COCCn1cnc2c3c(c(C(F)(F)F)cc21)-c1cccn2c(C(=O)c4cc(F)c(NC(=O)/C=C/CNC5(C)COC5)c(F)c4)cc(c12)CCN3C` (single isomer, unassigned) [Example 178, (E)-N-(2,6-difluoro-4-(9-(2-methoxyethyl)-12-methyl-7-(trifluorometh-yl)-9,12,13,14-tetrahydro-imidazo[4″,5″:5′,6′]benzo-[1′,2′:2,3]azocino[4,5,6-hi]indolizine-2-carbonyl)-phenyl)-4-((3-methyl-oxetan-3-yl)amino)but-2-enamide] are 32.4 nM and 41.3 nM.
In the same order, the values of `COc1cc2c(nc(C)n2C)c2c1-c1cccn3c(C(=O)c4cc(F)c(NC(=O)/C=C/CNC56CCC(CC5)OC6)c(F)c4)cc(c13)CCN2C` [Example 121] are 23 nM and 26.4 nM.
On to `Cc1cc2c(nc(C)n2C)c2c1-c1cccc3c(C(=O)c4cc(F)c(NC(=O)/C=C/CN5CC[C@H]5C(C)(C)O)c(F)c4)cn(c13)CCN2C` [Example 139, (S,E)-N-(2,6-difluoro-4-(6,8,9,11-tetramethyl-8,11,12,13-tetrahydro-imidazo[4″,5″:5′,6′]benzo-[1′,2′:5,6][1,4]diazocino-[7,8,1-hi]indole-2-carbon-yl)phenyl)-4-(2-(2-hydroxypropan-2-yl)-azetidin-1-yl)but-2-en-amide], for which the IC50 came out at 59 nM in experiment [1] (setting [3]) and 57.9 nM with MIA PaCa-2 cells (Table 3-1).
Take `Cc1cnc2c3c(c(C(F)(F)F)cn12)-c1cccn2c(C(=O)c4cc(F)c(NC(=O)/C=C/CN[C@H]5CCOC5)c(F)c4)cc(c12)CCN3C` (single isomer, unassigned) [Example 242]: the IC50 in experiment [1] (setting [2]) was determined as 17.8 nM; in the experiment on MIA PaCa-2 cells (Table 3-1), 16.7 nM.
On to `Cn1cnc2c3c(c(C(F)(F)F)cc21)-c1cccn2c(C(=O)c4cc(F)c(NC(=O)/C=C/CN5CC6CC5CCO6)c(F)c4)cc(c12)CCO3` (stereo not shown) [Example 229, (E)-4-(2-oxa-6-azabicyclo-[3.2.1]octan-6-yl)-N-(2,6-difluoro-4-(9-methyl-7-(trifluoromethyl)-13,14-dihydro-9H-imidazo-[4″,5″:5′,6′]benzo[1′,2′: 2,3]oxocino[4,5,6-hi]-indolizine-2-carbonyl)-phenyl)but-2-enamide], for which the IC50 turned out to be 12.7 nM in experiment [1] (setting [2]) and 11.3 nM with MIA PaCa-2 cells (Table 3-1).
In the case of `Cn1cnc2c3c(c(C(F)(F)F)cc21)-c1cccn2c(C(=O)c4cc(F)c(NC(=O)/C=C/CN5CC[C@H]5CF)c(F)c4)cc(c12)CCO3` [Example 175, (S,E)-N-(2,6-difluoro-4-(9-methyl-7-(trifluoro-methyl)-13,14-dihydro-9H-imidazo[4″,5″:5′,6′]-benzo[1′,2′:2,3]oxocino-[4,5,6-hi]indolizine-2-carbonyl)phenyl)-4-(2-(fluoromethyl)azetidin-1-yl)but-2-enamide], the IC50 in experiment [1] (setting [2]) was determined as 90.4 nM; in the experiment on MIA PaCa-2 cells (Table 3-1), 23.3 nM.
Consider `CN1CCn2cc(C(=O)c3cc(F)c(NC(=O)/C=C/CNC(C)(C)CF)c(F)c3)c3cccc(c32)-c2c(C(F)(F)F)cc3c(ncn3C)c21` [Example 81, (E)-N-(4-(8,11-dimethyl-6-(trifluoromethyl)-8,11,12,13-tetrahydro-imidazo[4″,5″:5′,6′]benzo-[1′,2′:5,6][1,4]diazocino-[7,8,1-hi]indole-2-carbon-yl)-2,6-difluorophenyl)-4-((1-fluoro-2-methyl-propan-2-yl)amino)but-2-enamide], for which the IC50 in experiment [1] (setting [3]) was found to be 20.8 nM; in the experiment on MIA PaCa-2 cells (Table 3-1), 33.4 nM.
